Data: patent publication US7964531B2, “3-phenoxy-4-pyridazinol derivatives and herbicidal composition containing the same” (Mitsui Chemicals Agro, Inc., priority 2001, dated 2011)

First: COc1cccc(Oc2nnc(Cl)cc2O)c1C [Compound No. 459, 6-Chloro-3-(3-methoxy-2-methylphenoxy)-4-pyridazinol]
Second: COc1cccc(Oc2nnc(Cl)cc2O)c1OC [Compound No. 503, 6-Chloro-3-(2,3-dimethoxyphenoxy)-4-pyridazinol]
The melting point of the first is higher: 224 to 237 °C for the first, 199 to 201 °C for the second.

First: Cc1cccc(Oc2nnc(Cl)cc2O)c1C1CC1 [Compound No. 472, 6-Chloro-3-(2-cyclopropyl-3-methylphenoxy)-4-pyridazinol]
Second: COc1cccc(Oc2nnc(Cl)cc2O)c1C1CC1 [Compound No. 478, 6-Chloro-3-(2-cyclopropyl-3-methoxyphenoxy)-4-pyridazinol]
The melting point of the first is higher: 197 to 198 °C for the first, 184 to 185 °C for the second.

First: Cc1cccc(Oc2nnc(Cl)cc2O)c1[N+](=O)[O-] [Compound No. 498, 6-Chloro-3-(3-methyl-2-nitrophenoxy)-4-pyridazinol]
Second: Cc1coc2cccc(Oc3nnc(Cl)cc3O)c12 [Compound No. 532, 6-Chloro-3-[(3-methyl-1-benzofuran-4-yl)oxy]-4-pyridazinol]
The melting point of the first is lower: 191 to 200 °C for the first, 218 to 225 °C for the second.

Compared with `Oc1cc(Cl)nnc1Oc1cccc2c1CC2` [Compound No. 505, 3-(Bicyclo[4.2.0]octa-1,3,5-trien-2-yloxy)-6-chloro-4-pyridazinol], `Oc1cc(Cl)nnc1Oc1cccc2c1CCC2` [Compound No. 506, 6-Chloro-3-(2,3-dihydro-1H-inden-4-yloxy)-4-pyridazinol] is higher in melting point: 145 to 155 °C for the first, 230 to 232 °C for the second.

First: CC1CCc2c(Oc3nnc(Cl)cc3O)cccc21 (stereo not drawn) [Compound No. 510, 6-Chloro-3-[(1-methyl-2,3-dihydro-1H-inden-4-yl)oxy]-4-pyridazinol]
Second: Oc1cc(Cl)nnc1Oc1cccc2c1CC1CC21 (stereo not drawn) [Compound No. 516, 3-(1,1a,6,6a-Tetrahydrocyclopropa[a]inden-5-yloxy)-6-chloro-4-pyridazinol]
The melting point of the first is higher: 228 to 230 °C for the first, 211 to 213 °C for the second.

First: CC1(C)Cc2cccc(Oc3nnc(Cl)cc3O)c2C1 [Compound No. 513, 6-Chloro-3-[(2,2-dimethyl-2,3-dihydro-1H-inden-4-yl)oxy]-4-pyridazinol]
Second: CC1(C)Cc2cccc(Oc3nnc(Cl)cc3O)c2O1 [Compound No. 540, 6-Chloro-3-[(2,2-dimethyl-2,3-dihydro-1-benzofuran-7-yl)oxy]-4-pyridazinol]
The melting point of the first is lower: 220 to 223 °C for the first, 228 to 229.5 °C for the second.

First: Oc1cc(Cl)nnc1Oc1cccc2c1C1CC1C2 (stereo not drawn) [Compound No. 515, 3-(1,1a,6,6a-Tetrahydrocyclopropa[a]inden-2-yloxy)-6-chloro-4-pyridazinol]
Second: CC1COc2cccc(Oc3nnc(Cl)cc3O)c21 (stereo not drawn) [Compound No. 529, 6-Chloro-3-[(3-methyl-2,3-dihydro-1-benzofuran-4-yl)oxy]-4-pyridazinol]
The melting point of the first is higher: 245 to 247 °C for the first, 238 to 245 °C for the second.

Compared with `Oc1cc(Cl)nnc1Oc1cccc2c1CCCC2` [Compound No. 521, 6-Chloro-3-(5,6,7,8-tetrahydro-1-naphthalenyloxy)-4-pyridazinol], `Oc1cc(Cl)nnc1Oc1cccc2c1CCO2` [Compound No. 528, 6-Chloro-3-(2,3-dihydro-1-benzofuran-4-yloxy)-4-pyridazinol] is lower in melting point: 232 to 237 °C for the first, 219 to 221 °C for the second.

First: Oc1cc(Cl)nnc1Oc1cccc2ccccc12 [Compound No. 527, 6-Chloro-3-(1-naphthyloxy)-4-pyridazinol]
Second: Oc1cc(Cl)nnc1Oc1cccc2occc12 [Compound No. 531, 3-(1-benzofuran-4-yloxy)-6-chloro-4-pyridazinol]
The melting point of the first is higher: 243 to 245 °C for the first, 220 to 225 °C for the second.

Compared with `Oc1cc(Cl)nnc1Oc1cccc2sccc12` [Compound No. 534, 3-(1-Benzothien-4-yloxy)-6-chloro-4-pyridazinol], `Oc1cc(Cl)nnc1Oc1cccc2ccoc12` [Compound No. 541, 3-(1-Benzofuran-7-yloxy)-6-chloro-4-pyridazinol] is higher in melting point: 181 to 183 °C for the first, 201 to 202 °C for the second.

Compared with `Cc1nc2c(Oc3nnc(Cl)cc3O)cccc2o1` [Compound No. 538, 6-Chloro-3-[(2-methyl-1,3-benzoxazol-4-yl)oxy]-4-pyridazinol], `Cc1nc2cccc(Oc3nnc(Cl)cc3O)c2o1` [Compound No. 549, 6-Chloro-3-[(2-methyl-1,3-benzoxazol-7-yl)oxy]-4-pyridazinol] is lower in melting point: 221 to 222 °C for the first, 197 to 202 °C for the second.

First: Oc1cc(Cl)nnc1Oc1cccc2c1OCO2 [Compound No. 544, 3-(1,3-Benzodioxol-4-yloxy)-6-chloro-4-pyridazinol]
Second: Cc1cc(F)ccc1Oc1nnc(Cl)cc1O [Compound No. 557, 6-Chloro-3-(4-fluoro-2-methylphenoxy)-4-pyridazinol]
The melting point of the first is lower: 206 to 211 °C for the first, 249 to 250 °C for the second.

`Oc1cc(Cl)nnc1Oc1ccc(Cl)cc1Cl` [Compound No. 552, 6-Chloro-3-(2,4-dichlorophenoxy)-4-pyridazinol] and `Cc1cc(Cl)ccc1Oc1nnc(Cl)cc1O` [Compound No. 558, 6-Chloro-3-(4-chloro-2-methylphenoxy)-4-pyridazinol] cannot be ordered by melting point: 233 to 237 °C for the first, 235 to 235.5 °C for the second.

Compared with `CCc1cc(I)ccc1Oc1nnc(Cl)cc1O` [Compound No. 562, 6-Chloro-3-(2-ethyl-4-iodophenoxy)-4-pyridazinol], `CCc1ccc(OC)cc1Oc1nnc(Cl)cc1O` [Compound No. 635, 6-Chloro-3-(2-ethyl-5-methoxyphenoxy)-4-pyridazinol] is lower in melting point: 199 to 201 °C for the first, 124 to 126 °C for the second.

First: CC(C)c1cc(Br)ccc1Oc1nnc(Cl)cc1O [Compound No. 566, 3-(4-Bromo-2-isopropylphenoxy)-6-chloro-4-pyridazinol]
Second: Cc1ccc(C(C)C)c(Oc2nnc(Cl)cc2O)c1 [Compound No. 640, 6-Chloro-3-(2-isopropyl-5-methylphenoxy)-4-pyridazinol]
The melting point of the first is higher: 215 to 225 °C for the first, 193 to 195 °C for the second.

First: Cc1ccc(Oc2nnc(Cl)cc2O)c(C(C)(C)C)c1 [Compound No. 567, 3-(2-tert-Butyl-4-methylphenoxy)-6-chloro-4-pyridazinol]
Second: Cc1ccc(C)c(Oc2nnc(Cl)cc2O)c1 [Compound No. 621, 6-Chloro-3-(2,5-dimethylphenoxy)-4-pyridazinol]
The melting point of the first is higher: 230 to 236 °C for the first, 80 to 83 °C for the second.

First: Cc1ccc(Cl)cc1Oc1nnc(Cl)cc1O [Compound No. 618, 6-Chloro-3-(5-chloro-2-methylphenoxy)-4-pyridazinol]
Second: COc1ccc(Cl)cc1Oc1nnc(Cl)cc1O [Compound No. 701, 3-(5-Chloro-2-methoxyphenoxy)-6-chloro-4-pyridazinol]
The melting point of the first is higher: 174 to 180 °C for the first, 143 to 155 °C for the second.

Compared with `Cc1ccc(C(C)C)cc1Oc1nnc(Cl)cc1O` [Compound No. 623, 6-Chloro-3-(5-isopropyl-2-methylphenoxy)-4-pyridazinol], `CC(C)c1ccc(C2CC2)c(Oc2nnc(Cl)cc2O)c1` [Compound No. 664, 6-Chloro-3-(2-cyclopropyl-5-isopropylphenoxy)-4-pyridazinol] is higher in melting point: 168 to 169 °C for the first, 211 to 212 °C for the second.

Compared with `Cc1ccc(C(=O)O)cc1Oc1nnc(Cl)cc1O` [Compound No. 626, 3-[(6-Chloro-4-hydroxy-3-pyridazinyl)oxy]-4-methylbenzoic acid], `COc1ccc(C)c(Oc2nnc(Cl)cc2O)c1` [Compound No. 629, 6-Chloro-3-(5-methoxy-2-methylphenoxy)-4-pyridazinol] is lower in melting point: 238 to 240 °C for the first, 170 to 172 °C for the second.

First: Cc1ccc(N(C)C)cc1Oc1nnc(Cl)cc1O [Compound No. 628, 6-Chloro-3-[5-(dimethylamino)-2-methylphenoxy]-4-pyridazinol]
Second: CN(C)c1ccc(C=O)c(Oc2nnc(Cl)cc2O)c1 [Compound No. 692, 2-[(6-Chloro-4-hydroxy-3-pyridazinyl)oxy]-4-(dimethylamino)benzaldehyde]
The melting point of the first is higher: 181 to 182 °C for the first, 124 to 127 °C for the second.

First: CC(C)c1cc(Oc2nnc(Cl)cc2O)cc(C(C)C)c1 [Compound No. 642, 6-Chloro-3-(3,5-diisopropylphenoxy)-4-pyridazinol]
Second: COc1ccc(C)cc1Oc1nnc(Cl)cc1O [Compound No. 704, 6-Chloro-3-(2-methoxy-5-methylphenoxy)-4-pyridazinol]
The melting point of the first is higher: 231 to 235 °C for the first, 126 to 134 °C for the second.

First: CC(C)(C)c1ccc(C(C)(C)C)c(Oc2nnc(Cl)cc2O)c1 [Compound No. 653, 6-Chloro-3-(2,5-di-tert-butylphenoxy)-4-pyridazinol]
Second: COc1ccc(F)cc1Oc1nnc(Cl)cc1O [Compound No. 700, 6-Chloro-3-(5-fluoro-2-methoxyphenoxy)-4-pyridazinol]
The melting point of the first is higher: 249 to 258 °C for the first, 187 to 191 °C for the second.

First: Oc1cc(Cl)nnc1Oc1cc(F)ccc1C1CC1 [Compound No. 658, 6-Chloro-3-(2-cyclopropyl-5-fluorophenoxy)-4-pyridazinol]
Second: Oc1cc(Cl)nnc1Oc1cc(Cl)ccc1C1CC1 [Compound No. 659, 6-Chloro-3-(5-chloro-2-cyclopropylphenoxy)-4-pyridazinol]
The melting point of the first is higher: 227 to 228 °C for the first, 194 to 195 °C for the second.

Compared with `Cc1ccc(C2CC2)c(Oc2nnc(Cl)cc2O)c1` [Compound No. 662, 6-Chloro-3-(2-cyclopropyl-5-methylphenoxy)-4-pyridazinol], `N#Cc1ccc(C2CC2)c(Oc2nnc(Cl)cc2O)c1` [Compound No. 667, 3-[(6-Chloro-4-hydroxy-3-pyridazinyl)oxy]-4-cyclopropylbenzonitrile] is higher in melting point: 150 to 159 °C for the first, 211 to 212 °C for the second.

First: CC=Cc1ccc(F)cc1Oc1nnc(Cl)cc1O [Compound No. 679, 6-Chloro-3-[5-fluoro-2-(1-propenyl)phenoxy]-4-pyridazinol]
Second: CC=Cc1ccc(Cl)cc1Oc1nnc(Cl)cc1O [Compound No. 680, 6-Chloro-3-[5-chloro-2-(1-propenyl)phenoxy]-4-pyridazinol]
The melting point of the first is lower: 210 to 217 °C for the first, 221 to 224 °C for the second.

`COc1ccc(Br)cc1Oc1nnc(Cl)cc1O` [Compound No. 702, 3-(5-Bromo-2-methoxyphenoxy)-6-chloro-4-pyridazinol] gave a melting point of 135 to 137 °C.
